{
  "source": "patent US20180207094A1",
  "about": "“IMPROVED TOPICAL KETOPROFEN FORMULATIONS” (Elliptical Therapeutics, LLC, priority 2015, published 2018)",
  "key": {"[1]": {"settings": "reported; cited from earlier work"}, "New Zealand rabbits": {"test_system": "New Zealand rabbits", "settings": "rabbit, in vivo"}},
  "data": [
    {"smiles": "C[C@@H](C(=O)O)c1cccc(C(=O)c2ccccc2)c1", "note": "(single isomer, unassigned) [R-enantiomer]", "values": [
      {"measurement": "anti-inflammatory and antipyretic activities", "setting": "[1]", "result": "little or no"}
    ]},
    {"smiles": "C[C@H](C(=O)O)c1cccc(C(=O)c2ccccc2)c1", "note": "(single isomer, unassigned) [S-enantiomer]", "values": [
      {"measurement": "potency relative to the racemate", "setting": "[1]", "result": "approximately twice as potent as the racemate"}
    ]},
    {"smiles": "CCCCCCCCCCCCOS(=O)(=O)[O-].[Na+]", "note": "[SDS 5%, sodium dodecyl sulfate]", "values": [
      {"measurement": "Overall Edema Score", "setting": "New Zealand rabbits", "result": 0.60},
      {"measurement": "Overall Erythema Score", "setting": "New Zealand rabbits", "result": 0.20}
    ]}
  ]
}
